One assay concerns the target T1, Cyclooxygenase (Bos taurus, UniProt O62664).
T1 construct: The assay consists of incubating 2 mg bovine seminal vesicle powder; from tissue; host or cells: bovine seminal vesicle powder
T1 sequence (O62664 25-600): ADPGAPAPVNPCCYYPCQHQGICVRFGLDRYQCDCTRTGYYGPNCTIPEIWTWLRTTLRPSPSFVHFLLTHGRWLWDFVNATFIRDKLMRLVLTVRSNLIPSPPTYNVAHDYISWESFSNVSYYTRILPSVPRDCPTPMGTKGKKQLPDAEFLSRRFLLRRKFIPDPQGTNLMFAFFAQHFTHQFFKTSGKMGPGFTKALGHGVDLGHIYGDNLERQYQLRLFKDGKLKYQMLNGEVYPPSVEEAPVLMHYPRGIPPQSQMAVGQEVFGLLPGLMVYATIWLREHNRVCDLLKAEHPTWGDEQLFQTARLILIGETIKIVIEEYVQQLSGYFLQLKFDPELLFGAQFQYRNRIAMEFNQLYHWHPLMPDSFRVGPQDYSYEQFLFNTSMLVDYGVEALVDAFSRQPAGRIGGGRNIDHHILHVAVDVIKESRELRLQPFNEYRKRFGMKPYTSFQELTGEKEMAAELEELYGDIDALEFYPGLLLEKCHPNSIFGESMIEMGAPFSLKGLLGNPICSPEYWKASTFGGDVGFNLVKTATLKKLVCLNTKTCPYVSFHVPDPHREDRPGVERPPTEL
As to the kind of experiment: Cyclooxygenase Enzyme Assay (BSV), bovine seminal vesicle powder, PGE2 formation. Format: biochemical. The following applies: 100 μM arachidonic acid, 20 minutes. How it is done: Cyclooxygenase Enzyme Assay (BSV) […]
The assay consists of incubating 2 mg bovine seminal vesicle powder with 2 mM epinephrine, 2.5 mM reduced glutathione, 100 μM arachidonic acid, and the test agent for 20 minutes. The reaction mixture is acidified and extracted with ethyl acetate (3×1.0 ml) and the pooled extract is evaporated to dryness using a Speed Vac Concentrator or under a stream of nitrogen. The residue is dissolved in ethanol An aliquot is applied on 20×20 cm silica gel plate and developed using water:ethyl acetate:hexane:acetic acid (60:54:25:12.5, upper phase) to separate PGE2 from arachidonic acid. ^14 C-PGE2 formed is identified by co-chromatography with authentic ^3 H-PGE2 and the amount of radioacitvity is quantitated using an automatic TLC linear scanner (Berthold, Pittsburgh, Pa.) linked to an Apple II-e computer and an ICso is calculated as the amount of test agent causing 50% inhibition of Cyclooxygenase Enzyme relative to the control.

A further assay addresses T2, 5-lipoxygenase (Homo sapiens, UniProt P09917).
T2 construct: endogenous in cells; host or cells: leukocytes isolated from fresh human blood
T2 sequence (P09917 1-674): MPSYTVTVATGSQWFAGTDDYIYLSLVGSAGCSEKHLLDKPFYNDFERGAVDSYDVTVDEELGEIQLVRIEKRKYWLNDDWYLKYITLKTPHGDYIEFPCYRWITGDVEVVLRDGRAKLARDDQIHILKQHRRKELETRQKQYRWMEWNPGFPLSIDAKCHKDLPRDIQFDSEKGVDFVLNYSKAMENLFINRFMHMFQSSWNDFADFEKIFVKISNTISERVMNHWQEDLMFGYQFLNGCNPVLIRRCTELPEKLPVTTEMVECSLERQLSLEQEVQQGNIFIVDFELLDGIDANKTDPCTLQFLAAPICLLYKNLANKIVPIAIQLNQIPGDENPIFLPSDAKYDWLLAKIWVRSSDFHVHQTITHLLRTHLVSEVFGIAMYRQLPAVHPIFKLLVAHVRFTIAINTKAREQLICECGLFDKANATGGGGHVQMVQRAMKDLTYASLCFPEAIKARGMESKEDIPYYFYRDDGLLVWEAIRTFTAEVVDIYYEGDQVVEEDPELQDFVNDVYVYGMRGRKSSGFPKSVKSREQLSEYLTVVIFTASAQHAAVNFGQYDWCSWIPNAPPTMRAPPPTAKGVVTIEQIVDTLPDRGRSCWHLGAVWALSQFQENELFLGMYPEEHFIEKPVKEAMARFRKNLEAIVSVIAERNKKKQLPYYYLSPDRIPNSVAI
As to the kind of experiment: 5-Lipoxygenase Assay Using Isolated Human Leukocytes (5LOA2), 5-HETE formation. It is filed as cell-based. The following applies: for IC50: 50% inhibition of 5-HETE formation in human leukocytes, 20 μM arachidonic acid, 10 μM A23187, read-out: 5-LOA IC50; for inhibition at 20 µM: read-out: 5-LOA % inhibition at 20 μM. On the procedure: 5-Lipoxygenase Assay Using Isolated Human Leukocytes (5LOA2)
The formation of 5-HETE in human leukocytes is considered a measure of 5-lipoxygenase activity. The protocol is described in the following.
Fresh heparinized or EDTA treated human blood is mixed with 6% dextran-3% dextrose in isotonic saline in the ratio 0.25 ml dextran solution per 1.0 ml blood. After mixing the blood is allowed to sit at room temperature for about 90 minutes while the RBC's settle. During this period, the plasma is removed with a plastic pipette to nalgens tubes.
The plasma is centrifuged at 800 rpm ([…]) on the Beckman Td-b refrigerated centrifuge to remove the platelets (which remain in the supernatant). The pellet, consisting of leukocytes and erythrocytes, is treated with 10 ml 0.87% ammonium chloride at room temperature for four minutes, lysing the red cells. At the end of four minutes the cells are diluted with a 2× volume of phosphate buffered saline, pH 7.4, and centrifuged for ten minutes. The cells are washed three times with the phosphate buffered saline. Any of the pelleted cell matter which is not easily resuspended is discarded during the washings--the material contains platelets (12-lipoxygenase activity).
After washing, the cells are resuspended in phosphate buffered saline containing 1.0 mM calcium and 0.5 mM magnesium. After counting, the cells are diluted to 1.5-2.0×10^-7 leukocytes per milliliter.
To each poly propylene reaction tube is added 0.48 ml leukocytes in Ca-Mg phosphate buffered saline, pH 7.4; 1-5 μl test compound dissolved in DMSO and buffer; or DMSO for control tubes.
The tubes preincubate at 37° C. for five minutes.
The reaction is started by adding 20 μl of the following, 0.5 μl, 20 mM arachidonic acid--final concentration =20 μm; 1 μl, 5 mM calcium ionophore A23187--final concentration =10 μm; and 18.5 μl buffer.
The reaction proceeds for five minutes, then is stopped by adding 0.5 ml, 0.5 mM ice cold Tris buffer, pH 8.0. The tubes are chilled on ice for ten minutes and then extracted three times with a total of 3.5 ml ethyl acetate (3.0 ml removed).
The tubes can be stored at this point. For extended storage, the tubes should be filled with nitrogen.
The ethyl acetate is evaporated with a Sorvall Speed-Vac. The residue is dissolved in ethanol. The tubes can also be stored at this point at -20° C. under nitrogen.
A portion of the ethanol solution is injected into the HPLC system for 5-HETE quantitation.
The HPLC system consists of Hewlett-Packard 1040A UV spectrophotometry system with an HP85 computer. Injections are made automatically with a Waters WISP 710B. The pump is a Spectra Physics SP8700. Peaks are measured with a Hewlett Packard 3390A integrator. An RP C-18 column is used. The solvent system is isocratic; the solvent is 70% methanol and 30% 0.01M sodium acetate, pH 5.7, pumped at 1.0 ml/min. The flow is monitored at 235 nm for 5-HETE quantitation. Using a 15 cm Alltech Nucleosil C-18 5 μM column provides for a sample turnaround time of about 16 minutes.
IC50 is calculated as the amount of test agent that causes 50% inhibition of the formation of 5-HETE relative to the control.

In US5142095A, “Diarylalkanoids having activity as lipoxygenase inhibitors” (Warner-Lambert Company, priority 1989, dated 1992) one finds IC50 and inhibition data, which are given here for 28 molecules.

For orientation: IC50 means the point on the concentration scale where inhibition reaches its midpoint. In general, inhibition refers to the change of the read-out against control, counted positive when it falls.

Structures are written as SMILES.

As for `Nc1cc(/C=C/C(CCc2ccccc2)=NO)ccc1O` (single isomer, unassigned) [23 (Isomer A), 1-Penten-3-one, 1-(3-amino-4-hydroxyphenyl)-5-phenyl, oxime], the values for the IC50 against Cyclooxygenase and at 5-lipoxygenase were 98 µM and 0.165 µM, respectively.
As to `Nc1cc(/C=C/C(CCc2ccccc2)=NO)ccc1O` (single isomer, unassigned) [23 (Isomer B), 1-Penten-3-one, 1-(3-amino-4-hydroxyphenyl)-5-phenyl, oxime], the IC50 against Cyclooxygenase is 90 µM; at 5-lipoxygenase it was 0.26 µM.
Turning to `COc1ccc(C=CC(=O)CCCCc2ccccc2)cc1O` [Example 1, 1-(3-Hydroxy-4-methoxyphenyl)-7-phenyl-1-hepten3-one], the half-maximal inhibitory concentration (IC50) on 5-lipoxygenase amounted to 11 µM.
Take `O=C(/C=C/c1ccc(O)c(O)c1)CCCCc1ccccc1` [Example 2, 1-(3,4-dihydroxyphenyl)-7-phenyl-1-hepten-3-one]: on 5-lipoxygenase, the IC50 came out at 1.7 µM.
For the molecule `O=C(/C=C/c1ccc(O)cc1)CCCCc1ccccc1` [Example 3], the inhibition at 20 µM on 5-lipoxygenase was determined as 30%.
Turning to `O=C(/C=C/c1ccc(O)c(CO)c1)CCCCc1ccccc1` [Example 4], the inhibition at 20 µM at 5-lipoxygenase is 17%.
As for `O=C(/C=C/c1ccc(O)c(Cl)c1)CCCCc1ccccc1` [Example 5], on 5-lipoxygenase, the IC50 came out at 8.8 µM.
As to `O=C(/C=C/c1ccc(C(=O)O)cc1)CCCCc1ccccc1` [Example 6], on 5-lipoxygenase, the inhibition at 20 µM stood at 19%.
In the case of `COc1cc(/C=C/C(=O)CCCc2ccccc2)ccc1O` [Example 7], the IC50 on 5-lipoxygenase stood at 18 µM.
Take `O=C(/C=C/c1ccc(O)c(O)c1)CCCc1ccccc1` [Example 8]: the IC50 on 5-lipoxygenase is 2 µM.
Turning to `COc1cc(/C=C/C(=O)CCc2ccccc2)ccc1O` [Example 9], the IC50 worked out at 31 µM at Cyclooxygenase and 15 µM at 5-lipoxygenase.
Take `O=C(/C=C/c1ccc(O)c(CO)c1)CCc1ccccc1` [Example 10]: the IC50 against Cyclooxygenase worked out at 92 µM; at 5-lipoxygenase it was 18 µM.
`O=C(/C=C/c1ccc(O)c(Cl)c1)CCc1ccccc1` [Example 11]: the IC50 against Cyclooxygenase stood at 110 µM; at 5-lipoxygenase, 22 µM.
`O=C(/C=C/c1ccc(O)c([N+](=O)[O-])c1)CCc1ccccc1` [Example 12, 1-Pentene-3-one, 1-(4-hydroxy-3-nitrophenyl)-5-phenyl] had an IC50 against Cyclooxygenase of 135 µM. The inhibition at 20 µM on 5-lipoxygenase stood at 22%.
Regarding `COc1cc(C=CC(=O)CCc2ccc(O)c(OC)c2)ccc1O` [Example 13, 1-Penten-3-one, 1,5-bis(4-hydroxy-3-methoxyphenyl)], the IC50 on Cyclooxygenase was 84 µM; on 5-lipoxygenase, 19 µM.
As for `COc1cc(C=CC(=O)CCCOc2ccccc2)ccc1O` [Example 14, 1-(4-Hydroxy-3-methoxyphenyl)-6-phenoxy-1-hexene-3-one], the IC50 turned out to be 31 µM against Cyclooxygenase and 11 µM on 5-lipoxygenase.
With `Nc1cc(/C=C/C(=O)CCc2ccccc2)ccc1O` [Example 15, 1-Pentene-3-one, 1-(3-amino-4-hydroxyphenyl)-5phenyl], the IC50 turned out to be 169 µM on Cyclooxygenase and 0.079 µM at 5-lipoxygenase.
For `COc1cc(C=CC(=O)COc2ccccc2)ccc1O` [Example 16, 1(4'-Hydroxy-3'-methoxyphenyl)-4-phenoxy-1-butene-3-one], the values for the IC50 at Cyclooxygenase and on 5-lipoxygenase were 130 µM and 20 µM, respectively.
Take `COc1cc(C=CC(=O)CSc2ccccc2)ccc1O` [Example 16A, 1-(4-Hydroxy-3-methoxyphenyl)-4-phenylthio-1-butene-3-one]: the IC50 at 5-lipoxygenase is 12 µM.
As for `COc1cc(/C=C/C(CCCCc2ccccc2)=NO)ccc1O` [Example 17, 1-Hepten-3-one, 1-(4-hydroxy-3-methoxyphenyl)-7-phenyl, oxime], the results for the half-inhibitory concentration (IC50) against Cyclooxygenase and at 5-lipoxygenase were 23 µM and 1.7 µM, respectively.
Turning to `COc1ccc(/C=C/C(CCCCc2ccccc2)=NO)cc1O` [Example 18], on 5-lipoxygenase, the IC50 amounted to 5.9 µM.
On to `ON=C(/C=C/c1ccc(O)c(O)c1)CCCCc1ccccc1` [Example 19, 1-Hepten-3-one, 1-(3,4-dihydroxyphenyl)-7-phenyl, oxime], for which the IC50 against Cyclooxygenase was found to be 125 µM; on 5-lipoxygenase, 1 µM.
On to `OCc1cc(/C=C/C(CCCCc2ccccc2)=NO)ccc1O` [Example 20], for which the IC50 on 5-lipoxygenase is 8.7 µM.
`COc1cc(/C=C/C(CCc2ccccc2)=NO)ccc1O` [Example 21, 1-Penten-3-one, 1-(4-hydroxy-3-methoxyphenyl)-5-phenyl, oxime]: the IC50 came to 33 µM against Cyclooxygenase and 0.42 µM at 5-lipoxygenase.
Take `OCc1cc(/C=C/C(CCc2ccccc2)=NO)ccc1O` [Example 22]: the IC50 on 5-lipoxygenase was 35 µM.
For the molecule `COc1cc(C=CC(COc2ccccc2)=NO)ccc1O` [Example 24, 1-(4-Hydroxy-3-methoxyphenyl)-4-phenoxy-1-buten-3-one oxime], the IC50 is 57 µM against Cyclooxygenase and 2.5 µM at 5-lipoxygenase.
On the same counts, the results for `COc1cc(C=CC(CCCOc2ccccc2)=NO)ccc1O` [Example 25, 1-(4-Hydroxy-3-methoxyphenyl)-6-phenoxy-1-hexen-3-one oxime] are 170 µM and 0.71 µM.
On to `CON=C(C=Cc1ccc(O)c(OC)c1)CCCCc1ccccc1` [Example 26, 1-(4-Hydroxy-3-methoxyphenyl)-7-phenyl-1-hepten-3-one, O-methyl oxime], for which the IC50 at 5-lipoxygenase stood at 3 µM.
